Measured values as given in paper PMC7136958, “Targeting the pregnane X receptor using microbial metabolite mimicry” (EMBO Molecular Medicine, 2020).
Where “and” joins values, the source holds several entries; their conditions need not be identical. Identical values can stand only once. Marks after values point to notes of the source that are not given here.

Experiments:
hPXR-LBD (PXR.1) = molecular target: T1, hPXR-LBD (PXR.1) (Homo sapiens, UniProt O75469); experiment: Isothermal titration calorimetry with His-tagged hPXR-LBD; format: binding; conditions: 37°C; for Kd: single-site model
T1 construct: made in house; host or cells: E. coli BL21-Gold
T1 sequence (O75469 146-433 limits assumed): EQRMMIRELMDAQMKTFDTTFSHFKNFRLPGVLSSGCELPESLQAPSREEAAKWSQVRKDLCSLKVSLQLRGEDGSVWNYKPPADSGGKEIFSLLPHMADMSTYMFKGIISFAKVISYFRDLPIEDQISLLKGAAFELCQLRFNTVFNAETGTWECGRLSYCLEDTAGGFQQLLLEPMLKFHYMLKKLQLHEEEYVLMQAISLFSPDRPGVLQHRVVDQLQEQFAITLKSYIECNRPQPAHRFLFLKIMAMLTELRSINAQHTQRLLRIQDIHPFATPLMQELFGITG
Description: The cloning, expression, and purification of His‐tagged PXR‐LBD were performed as previously published (Wallace et al, 2013) with the following modifications: For protein expression, Luria–Bertani (LB) media were inoculated with a saturated culture of BL21‐Gold cells transformed with HIS‐LIC plasmid containing the PXR‐LBD construct. The mixture was allowed to shake at 37°C until the cells reached an OD600 ~ 0.6, and then, the temperature was reduced to 18°C, at which time IPTG was added (final concentration of 0.1 mM) to induce protein expression. For purification, the His‐tag was not removed, and the uncleaved protein was loaded onto the gel filtration column with buffer containing HEPES (4‐(2‐hydroxyethyl)‐1‐piperazineethanesulfonic acid) (25 mM, pH 7.5) and NaCl (150 mM).
Isothermal titration calorimetry (ITC) was carried out using a VP‐ITC microcalorimeter from MicroCal⁄Malvern Instruments (Northampton, MA, USA). […] In all the experiments, the ligand solution was injected in 10 μl aliquots into the calorimetric cell containing PXR‐LBD (ligand‐binding domain) at a concentration of 3–6 μM. […] The experiments were carried out at 37°C. The heat evolved upon each injection of the ligands was obtained from the integral of the calorimetric signal. The heat associated with binding to PXR‐LBD in the cell was obtained by subtracting the heat of dilution from the heat of reaction.

[1] = test system: PXR occupancy of CYP3A4 and MDR1 promoter; experiment: Chromatin immunoprecipitation (ChIP) in PXR-transfected LS174T cells; conditions: 10 μM
Description: LS174T cells were transfected with pSG5‐PXR (2 μg/plate/1 × 10^7 cells). […] Briefly, cells were chemically cross‐linked with formaldehyde in culture media for 15 min at room temperature. […] Cells were rinsed twice with cold PBS (phosphate‐buffered saline) (pH 7.5) and scraped in PBS supplemented with PIC (protease inhibitor cocktail).
Cell pellets were collected and immediately resuspended in immunoprecipitation (IP) buffer (150 mM NaCl (sodium chloride), 50 mM Tris–HCl at pH 7.5, 5 mM EDTA (ethylenediaminetetraacetic acid), 0.5% NP‐40, 1% Triton X‐100). The nuclei were centrifuged at 12,000 × g for 1 min and resuspended in fresh IP buffer. Chromatin was sheared by sonication to an average size of 0.2‐0.9 kb. Lysates were cleared by centrifugation at 12,000 × g for 10 min. […] 10% (wt/vol) Chelex 100 was added to the beads followed by boiling of the suspension and centrifugation at 12,000 × g for 1 min to obtain chromatin.
Purified chromatin DNA was used to perform RT–qPCR. […] Data were analyzed using SDS 2.2.1 program (ABI Biotechnology).

hPXR = molecular target: T2, hPXR (Homo sapiens, UniProt O75469); experiment: hPXR TR-FRET competitive binding assay (LanthaScreen); conditions: for 520/495 TR-FRET ratio: replicate wells; for TR-FRET signal (Fig 1e): each column a repeat
T2 sequence (O75469 111-434 limits assumed): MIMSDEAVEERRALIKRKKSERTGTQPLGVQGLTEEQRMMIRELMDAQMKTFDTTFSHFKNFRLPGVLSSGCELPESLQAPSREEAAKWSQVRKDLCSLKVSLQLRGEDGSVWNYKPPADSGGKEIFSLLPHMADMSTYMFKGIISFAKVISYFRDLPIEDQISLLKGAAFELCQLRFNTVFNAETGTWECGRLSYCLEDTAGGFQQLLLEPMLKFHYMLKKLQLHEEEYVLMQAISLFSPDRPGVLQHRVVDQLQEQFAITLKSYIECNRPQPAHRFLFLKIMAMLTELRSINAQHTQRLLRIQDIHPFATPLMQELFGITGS
Description: All PXR‐binding assays were performed as two independent experiments, each with a minimum of four replicates. Final IC50 was obtained by processing the data with GraphPad Prism 6 using standard curve interpolation (sigmoidal, 4PL, variable slope).

[2] = molecular target: T3, Human constitutive androstane receptor (hCAR) (Homo sapiens, UniProt Q14994); experiment: hCAR reporter activity in HEK293T cells; format: cell-based
T3 construct: expressed in transfected cells; host or cells: HEK293T
Description: Reverse transfection assays were performed in Caco‐2 cells as previously published with the following modifications (Kublbeck et al, 2015). 3.0 × 10^4 cells per well were transfected using pSG5‐PXR plasmid (300 ng/well), β‐Gal expression plasmid (600 ng/well), and CYP3A4‐luciferase reporter (500 ng/well) (Huang et al, 2007). After 24‐h transfection using Lipofectamine® LTX ([…] of plasmid), cells were exposed to FKK5 for 24 h. Cell lysates were prepared for β‐Gal and luciferase assays as previously published (Huang et al, 2007). The data are expressed as mean ± SD RLU (relative light units from luciferase assay) normalized to β‐Gal activity in the same well. Differences were tested using 2‐way ANOVA with Tukey's multiple comparison test, and P < 0.05 was considered significant (*). Standard transient transfection assays (PXR, CAR) in HEK293T cells were performed as previously published (Huang et al, 2007).

[3] = test system: PXR target genes in LS174T PXR-KO cells; experiment: PXR target gene mRNA in LS174T PXR-KO cells; format: cell-based, human
Description: Figure EV5 LS174T PXR‐knockout (KO) cells are not responsive to PXR ligands • Expression of CYP1A1 and CYP3A4 mRNA in PXR‐knockout and wild‐type LS174T. […] Experiment was performed in 4 independent cell passages (6th, 8th, 10th, and 12th). The mRNA expression of CYP1A1 and CYP3A4 mRNA was determined by RT–PCR, and data were normalized to GAPDH mRNA level. (a) CYP1A1 mRNA. (b) CYP3A4 mRNA. Data are expressed as mean ± SD. • Immunoblot for PXR protein expression in PXR wild‐type and knockout (KO) cells. Experiment was performed in nine independent cell passages (P). • Fold mRNA expression of PXR target genes. Each tissue PCR was repeated in quadruplicate. The expression was normalized to internal control, GAPDH. The entire experiment was repeated n > 2 for reproducibility. The data shown are one representative experiment. Source data are available online for this figure.
Briefly, cells were first tested negative for mycoplasma.

T3 sequence (Q14994 whole entry): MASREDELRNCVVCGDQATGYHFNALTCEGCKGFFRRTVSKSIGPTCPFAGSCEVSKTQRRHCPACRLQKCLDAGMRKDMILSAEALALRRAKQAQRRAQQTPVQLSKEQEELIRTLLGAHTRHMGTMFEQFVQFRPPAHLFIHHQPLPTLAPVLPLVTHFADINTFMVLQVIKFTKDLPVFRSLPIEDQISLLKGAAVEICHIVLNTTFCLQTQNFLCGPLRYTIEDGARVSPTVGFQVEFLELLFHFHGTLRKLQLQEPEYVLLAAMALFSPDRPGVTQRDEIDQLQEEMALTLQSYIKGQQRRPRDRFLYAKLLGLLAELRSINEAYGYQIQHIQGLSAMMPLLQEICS

Row | Structure (SMILES) | ΔH (enthalpy of binding) (hPXR-LBD (PXR.1)) | −TΔS (hPXR-LBD (PXR.1)) | Kd (hPXR-LBD (PXR.1)) | 520/495 TR-FRET ratio (hPXR; 0.001 uM) | 520/495 TR-FRET ratio (hPXR; 0.005 uM) | 520/495 TR-FRET ratio (hPXR; 0.01 uM) | 520/495 TR-FRET ratio (hPXR; 0.05 uM) | 520/495 TR-FRET ratio (hPXR; 0.1 uM) | 520/495 TR-FRET ratio (hPXR; 0.5 uM) | 520/495 TR-FRET ratio (hPXR; 1 uM) | 520/495 TR-FRET ratio (hPXR; 5 uM) | 520/495 TR-FRET ratio (hPXR; 10 uM) | 520/495 TR-FRET ratio (hPXR; 25 uM) | TR-FRET signal (Fig 1e) (hPXR; Drug Conc 5 nM) | TR-FRET signal (Fig 1e) (hPXR; Drug Conc 10 nM) | TR-FRET signal (Fig 1e) (hPXR; Drug Conc 25 uM) | CAR activity induction [2] | PXR target gene induction [3] | also measured
1 | O=C(c1ccncc1)c1cc2ccccc2n1S(=O)(=O)c1ccccc1 [FKK5, (1-(phenylsulfonyl)-1H-indol-2-yl)(pyridin-4-yl)methanone] | -2.5 kcal/mol | -6.4 kcal/mol | 300 nM | 0.6965 and 0.4501 and 0.6299 and 0.6424 | 0.7274 and 0.6833 and 0.7094 and 0.6960 | 0.5474 and 0.5649 and 0.4572 and 0.5311 | 0.6957 and 0.6419 and 0.6716 and 0.6881 | 0.6678 and 0.6931 and 0.6595 and 0.6666 | 0.6903 and 0.6366 and 0.6178 and 0.6056 | 0.6447 and 0.5990 and 0.6565 and 0.5995 | 0.4264 and 0.3946 and 0.3906 and 0.3944 | 0.2760 and 0.2201 and 0.3383 and 0.4401 | 0.2211 and 0.2334 and 0.2644 and 0.2449 | 0.7094 and 0.696 and 0.7274 and 0.6833 | 0.4572* and 0.5311* and 0.5474* and 0.5649* | 0.2644 and 0.2449 and 0.2211 and 0.2334 | did not induce | did not induce | MDR1 Fold Expression (2-ΔΔCt) ([1]; relative to DMSO = 1, each column a repeat experiment (Fig 1d)): 3.894 and 3.803 and 2.576 and 4.071; TR-FRET signal (Fig 1e) (hPXR; Drug Conc 1 uM): 0.5995 and 0.6565 and 0.599 and 0.6447; TR-FRET signal (Fig 1e) (hPXR; Drug Conc 5 uM): 0.3906 and 0.3944 and 0.4264 and 0.3946; TR-FRET signal (Fig 1e) (hPXR; Drug Conc 2,5 uM): 0.4667 and 0.4734 and 0.4777 and 0.4842
2 | C#CCC(O)(c1ccncc1)c1cc2ccccc2n1S(=O)(=O)c1ccccc1 (stereo not drawn) [FKK6] | -3.5 kcal/mol | -4.1 kcal/mol | 2700 nM | 0.4136 and 0.4057 and 0.5035 and 0.4539 | 0.6293 and 0.6196 and 0.5845 and 0.6237 | 0.6566 and 0.5913 and 0.6411 and 0.6166 | 0.6583 and 0.5743 and 0.6162 and 0.6466 | 0.7390 and 0.6524 and 0.6459 and 0.6637 | 0.5359 and 0.4958 and 0.5519 and 0.5445 | 0.5035 and 0.4918 and 0.5332 and 0.5717 | 0.3896 and 0.3581 and 0.3234 and 0.3736 | 0.2832 and 0.3381 and 0.2857 and 0.3170 | 0.3206 and 0.2975 and 0.3225 and 0.3589 | 0.6293 and 0.6196 and 0.5845 and 0.6237 | 0.6566 and 0.5913 and 0.6411 and 0.6166 | 0.3206 and 0.2975 and 0.3225 and 0.3589 | did not induce | did not induce | PXR occupancy of proximal CYP3A4 and MDR1 promoter (semi-quantitative ChIP) [1]: augmented PXR occupancy; TR-FRET signal (Fig 1e) (hPXR; Drug Conc 0,25 uM): 0.6324 and 0.6211 and 0.6238 and 0.5836; TR-FRET signal (Fig 1e) (hPXR; Drug Conc 1 nM): 0.4136* and 0.4057* and 0.5035* and 0.4539*; TR-FRET signal (Fig 1e) (hPXR; Drug Conc 50 nM): 0.6583 and 0.5743 and 0.6162 and 0.6466; TR-FRET signal (Fig 1e) (hPXR; Drug Conc 10 uM): 0.2832 and 0.3381 and 0.2857 and 0.317
